Patent US12570697B2, “Cyclic peptide useful in the treatment of cancer” (Syntherix Limited, priority 2019, dated 2026)
pIC50: −log10 of the molar value. Ends that are not written are not given here.

Tests used:
[1] = system: human non-small cell lung cancer cells (NCIH-460); experiment: killing of NCIH-460 cells by CLIPS-cyclised peptides of different warhead length (Table 1); assay type: cell-based; conditions: Homo sapiens, NCI-H460; Paclitaxel control; printed in the 0.2 μl Nanocin-PRO per well column
Experimental: The inventor undertook testing of the effect of various peptides which were cyclised using CLIPS technology on the killing of human non-small cell lung cancer cells (NCIH-460) in vitro. For each of the peptides, between two and four isomer fractions were received, giving a total of 12 peptide entities tested.
The following warhead lengths, obtained by adding flanking sarcosine residues, were tested: […]

[2] = system: NCI-H460 cells; experiment: viability assay of CLIP cyclised peptides on NCI-H460 cells (Example 3, Table 2); assay type: cell-based, human; conditions: for cytotoxic activity against NCIH460 cells (in words): with and without Nanocin-PRO
Experimental: (§1) The following protocol was used: • 1) NCI-H460 cells were grown in Ham's F12 media supplemented with 10% FBS. • 2) Cells were harvested and seeded into 96-well plates at 500 cells per well. • 3) Peptides were diluted 1:2 from DMSO stock solutions to generate a 9-point dose range from a top concentration of 300 μM. Final DMSO concentration was constant at 1% (v/v). • 4) In line with the supplied Nanocin-PRO protocol, diluted peptides were incubated with Nanocin-PRO in media for 20 minutes prior to addition to cells. Nanocin-PRO was used at a final assay concentration of 0.2 μl per well. • 5) Cells were grown in the presence of peptide for 96 hours at 37° C., 5% CO2 in a humidified atmosphere. • 6) After 96 h, Alamar blue 10% (v/v) was added, incubated for a further 4 h and fluorescent product detected using a BMG FLUOstar plate reader. • 7) Media only background readings were subtracted before data was analysed using a 4-parameter logistic equation in GraphPad Prism.
Viability assays of the CLIP cyclised peptides were performed to examine the effect of four HILRa clipped peptides on the viability of NCIH460 cells (up to three isomers for each of the peptides). […] Results for HILRa 16A, 16B, 16C and HILRa 17A, 17B and 17C are depicted in FIG. 2.
Assays were performed in the presence and absence of the peptide transfection reagent Nanocin-PRO.

[3] = system: NCI-H460 cells; experiment: NCI-H460 cell viability assay, glycosylated versus unglycosylated peptide (Example 4); assay type: cell-based, human; conditions: 0.2 μl Nanocin-Pro per well
Experimental: The inventor next undertook testing to determine whether the cytotoxicity of the peptides of the invention could be increased by glycosylation of the peptides. NCI-H460 cell viability assays were performed to compare the effect of a glycosylated clipped peptide (HILRa-Glu-01) versus the un-glycosylated version (HILRa-CL-17, HILRa-CL-17 was used in this study as a 1:1:1 mix of the three isomers HILRa-CL-17A, HILRa-CL-17B and HILRa-CL-17C).
Assays were performed in the presence and absence of the peptide transfection agent Nanocin-Pro.
as §1, with “HILRa peptides” for “Peptides”, “[…] Nanocin-Pro” for “Final DMSO concentration was constant at 1% (v/v). • 4) In line with the supplied Nanocin-PRO protocol, diluted peptides were incubated with Nanocin-PRO in media for 20 minutes prior to addition to cells. Nanocin-PRO”

[4] = system: H460 human non-small cell lung cancer cell lines; conditions: cited from earlier work
[5] = system: RT112 bladder cancer cell line; conditions: WO 2016/020437; cited from earlier work
[6] = system: MRC-5 cells; conditions: in vitro; WO 2016/020437; cited from earlier work

Question: With `CC(=O)O[C@H]1C(=O)[C@@]2(C)[C@H]([C@H](OC(=O)c3ccccc3)[C@]3(O)C[C@H](OC(=O)[C@H](O)[C@@H](NC(=O)c4ccccc4)c4ccccc4)C(C)=C1C3(C)C)[C@]1(OC(C)=O)CO[C@@H]1C[C@@H]2O` [Paclitaxel, reference compound] as the compound, how does the pIC50 [1] read?
Answer: 8.13

Question: What about the pIC50 ([2]; Homo sapiens, NCI-H460, Paclitaxel control, No Nanocin-PRO column) of the same compound?
Answer: 8.31

Question: Which “cytotoxic activity against NCIH460 cells (in words)” value [2] does the source give for “Ac-C[Dac]R[Sar][Nap]R[Nap]C-NH2 [HILRa-CL-17]” here?
Answer: greater potency than HILRa-CL-15

Question: What about the “cytotoxic activity against NCIH460 cells (in words)” value ([2]; listed as HILRa-CL17) of the same compound?
Answer: showed activity

Question: What about the “activity in the presence of Nanocin-PRO compared to its absence” value [3] of the same compound?
Answer: much higher activity

Question: With PRGPRPVALKLALKLAL [HILR-001] as the compound, how does the pIC50 ([4]; as described in WO 2009/112536) read?
Answer: 3.70

Question: What about the “killing of H460 cells versus primary diploid human fibroblasts, keratinocytes or MRC5 cells” value ([4]; in vitro, WO 2009/112536) of the same compound?
Answer: selective killing

Question: Which results are given for PRGPRPVWWRRWWRRWW [HILR-PRO-25]?
Answer: pIC50 [5]: 5.00; lethality in MRC-5 cells [6]: without lethality
